Assay results reported in patent US4598065A, “Use of peptides as medicaments and certain novel peptides” (Novo Industri A/S, priority 1980, dated 1986).

Key:
[1] = test system: NMRI mice; assay: Acute toxicity study in NMRI mice; format: in vivo; conditions: 10 mg i.v. bolus, NMRI mice 20 g (500 mg/kg body weight)
[2] = test system: gall flow in rats; assay: Gall flow in rats in vivo; parameters: species or system rat
[3] = test system: pentagastrin stimulated gastric acid secretion in gastric fistula cats; assay: Pentagastrin stimulated gastric acid secretion in cats with chronic gastric fistulas; format: in vivo, cat
Description: 1 μg/kg pentagastrin subcutaneously administered to gastric fistula cats caused an increase in gastic acid secretion of 856±71 μEq (Eq designates equivalent) acid (X±S.E.M., N=18). When 2 μg/kg glucagon1-21 was administered subcutaneously at the same time as 1 μg/kg pentagastrin the increase in acid output was only 417±104 μEq acid (N=6).
In a male cat weighing approx. 4.5 kg equipped with a cronic gastric fistula the gastric acid secretion was stimulated with 4.5 μg pentagastrin (Peptavlon®) in a volume of 1 ml 0.9% saline containing 0.1% human serum albumin subcutaneously in the neck. In 8 experiments 1 ml placebo (0.9% saline with 0.1% human serum albumin) was administered subcutaneously through another cannula in the neck at the same time as the administration of pentagastrin. In 2 experiments 9 μg of glucagon1-21 in 1 ml of the above solution was administered simultaneously with the administration of pentagastrin. Gastric acid secretion was collected over periods of 15 minutes and titrated with 0.01N NaOH. The increase in acid secretion after the administration of pentagastrin was calculated as μEq acid excreted over 11/2 hrs. after the administration subtracting the basal acid secretion before administration of pentagastrin. After administration of 4.5 μg pentagastrin plus placebo the increase in gastric acid secretion was 729± 89 μEq acid (X±S.E.M., N=8). […]

[4] = test system: isolated perfused rat pancreas; assay: Insulin release from the isolated perfused rat pancreas; format: cell-based; conditions: infused to the same concentration as glucagon
[5] = test system: electrically stimulated guinea pig ileum; assay: Contractions of the electrically stimulated guinea pig ileum in vitro; format: cell-based
Source text: 10^-5 M glucagon caused 83±4% (X±sd, N=3) ihibition compared to 78±5% for glucagon1-21. The effects of 10^-6 M was 50±3% and 52±5%, respectively, and of 10^-7 M: 27±3% for either peptide.

[6] = test system: intestinal motility in rabbits; assay: Intestinal motility in anaesthetized rabbits in vivo (spasmolytic effect, balloon in jejunum); parameters: species or system rabbit; conditions: for spasmolytic effect: Experiment B, rabbit 2.32 kg
Description: One male rabbit weighing 2.56 kg was anaesthetized with nembutal after an overnight fast. The position of the balloon used for measurement of intestinal motility was 1 meter from pylorus in the jejunum. The motility was registered before and after intraveneous administration of 77 μg glucagon1-21 in 1 ml 0.9% saline containing 0.1% human serum albumin. […] The onset of effect was 1 minute after the administration and the duration of effect was 11 minutes.
A male rabbit weighing 2.32 kg was treated as described in Experiment A with the following dosages: […]

[7] = test system: bile flow in rabbits; assay: Bile flow in rabbits with catheters in the bile duct; format: in vivo, rabbit; conditions: for Amount of bile: 200 μg s.c. given after 45 minutes
Description: One rex rabbit weighing 2.0 kg was equipped with a catheter in the bile duct during nembutal anaesthesia on the day before the experiment. On the day of the experiment the bile was collected for periods of 15 minutes.
After 45 minutes 200 μg glucagon was administered subcutaneously in 1 ml of 0.9% saline containing 0.1% human serum albumin. After 120 minutes 154 μg glucagon1-21 was administered subcutaneously in 1 ml of the above solution. After 195 minutes the placebo (vide Experiment C) was administered.

[8] = test system: rabbit gall bladder preparation; assay: Relaxation of submaximally contracted rabbit gall bladder preparation in vitro; format: cell-based
[9] = test system: rat free fat cells; assay: Lipolytic effect on rat free fat cells in vitro; format: cell-based
[10] = test system: rats; assay: Metabolic effects (hyperglycemia, insulin release) after administration to rats in vivo; parameters: species or system rat
[11] = test system: adenylate cyclase; conditions: in vitro
Source text: The metabolic effects of glucagon1-21, glucagon1-26 and des(22-26)-glucagon, as exemplified by their lipolytic effect on rat free fat cells in vitro and their effect on the activation of the adenylate cyclase in vitro, are negligible compared with the metabolic effects of glucagon.

[12] = i.v. bolus, 100 to 200 μg glucagon or 77 to 154 μg glucagon1-21, anesthetized rabbits 2.5 to 3.0 kg

CC(C)C[C@H](NC(=O)[C@H](Cc1ccc(O)cc1)NC(=O)[C@H](CCCCN)NC(=O)[C@H](CO)NC(=O)[C@H](Cc1ccc(O)cc1)NC(=O)[C@H](CC(=O)O)NC(=O)[C@H](CO)NC(=O)[C@@H](NC(=O)[C@H](Cc1ccccc1)NC(=O)[C@@H](NC(=O)CNC(=O)[C@H](CCC(N)=O)NC(=O)[C@H](CO)NC(=O)[C@@H](N)Cc1c[nH]cn1)[C@@H](C)O)[C@@H](C)O)C(=O)N[C@@H](CC(=O)O)C(=O)N[C@@H](CO)C(=O)N[C@@H](CCCNC(=N)N)C(=O)N[C@@H](CCCNC(=N)N)C(=O)N[C@@H](C)C(=O)N[C@@H](CCC(N)=O)C(=O)N[C@@H](CC(=O)O)C(=O)O [glucagon1-21, glucagon-(1-21)-heneicosapeptide]
deaths [1]: No deaths occurred

glucagon
effect on gall flow [2]: increase in gall flow
effect on pentagastrin stimulated gastric acid secretion [3]: inhibit pentagastrin stimulated gastric acid secretion
insulin release [4]: releases insulin
inhibition of contraction amplitude ([5]; 10^-5 M, X±sd, N=3): 83±4%
inhibition of contraction amplitude ([5]; 10^-6 M): 50±3%
inhibition of contraction amplitude ([5]; 10^-7 M): 27±3%
spasmolytic effect ([6]; 200 μg i.v.): no detectable effect
spasmolytic effect ([6]; 400 μg): distinct effect
duration of inhibition of intestinal motility [6, 12]: about ten
onset of inhibition of intestinal motility after administration [6, 12]: one
gall flow immediately after the administration ([7]; rabbits with catheters in the bile duct): decrease in gall flow
subsequent bile flow ([7]; rabbits with catheters in the bile duct, after the initial decrease): increase in bile flow to quantities higher than before the administration
Amount of bile ([7]; sampling period 45-60 minutes, one rex rabbit 2.0 kg): 0.20 mL
Amount of bile ([7]; sampling period 60-75 minutes): 0.25 mL
Amount of bile ([7]; sampling period 75-90 minutes): 3.30 mL
Amount of bile ([7]; sampling period 90-105 minutes): 2.80 mL
Amount of bile ([7]; sampling period 105-120 minutes): 2.00 mL
relaxation of gall bladder strip ([8]; 10^-6 M, strip contracted with 0.1 μg/ml cholecystochinin octapeptide): 39%
ED50 (relaxation of gall bladder strip) ([8]; strip contracted with 0.1 μg/ml cholecystochinin octapeptide): 2700 nM
relaxing effect on gall bladder preparation, relative potency ([8]; submaximally contracted rabbit gall bladder preparation in vitro): almost equipotent

CC(C)C[C@H](NC(=O)[C@H](Cc1c[nH]c2ccccc12)NC(=O)[C@H](CCC(N)=O)NC(=O)[C@@H](NC(=O)[C@H](Cc1ccccc1)NC(=O)[C@H](CC(=O)O)NC(=O)[C@H](CCC(N)=O)NC(=O)[C@H](C)NC(=O)[C@H](CCCNC(=N)N)NC(=O)[C@H](CCCNC(=N)N)NC(=O)[C@H](CO)NC(=O)[C@H](CC(=O)O)NC(=O)[C@H](CC(C)C)NC(=O)[C@H](Cc1ccc(O)cc1)NC(=O)[C@H](CCCCN)NC(=O)[C@H](CO)NC(=O)[C@H](Cc1ccc(O)cc1)NC(=O)[C@H](CC(=O)O)NC(=O)[C@H](CO)NC(=O)[C@@H](NC(=O)[C@H](Cc1ccccc1)NC(=O)[C@@H](NC(=O)CNC(=O)[C@H](CCC(N)=O)NC(=O)[C@H](CO)NC(=O)[C@@H](N)Cc1c[nH]cn1)[C@@H](C)O)[C@@H](C)O)C(C)C)C(=O)O [glucagon1-26, glucagon-(1-26)-hexacosapeptide]
lipolytic effect (metabolic effect) compared with glucagon [9]: negligible
inhibitory effect on the amplitude of the contractions, potency compared with glucagon ([5]; electrically stimulated guinea pig ileum in vitro): almost the same potency as glucagon
metabolic effects after administration in vivo [10]: No metabolic effects
effect on the activation of the adenylate cyclase (metabolic effect) compared with glucagon [11]: negligible
